According to BindingDB's records for doi:10.7270/Q2TX3CTT (Broad Institute, 2010):

Molecular target: Glycogen synthase kinase-3 beta (Homo sapiens, UniProt P49841)
Assay: GSK3beta kinase inhibitor potency, dose response, biochemical, luminescence, cell-free homogeneous, retest (AID 434954)

Glycogen synthase kinase-3 beta, sequence (P49841 whole entry): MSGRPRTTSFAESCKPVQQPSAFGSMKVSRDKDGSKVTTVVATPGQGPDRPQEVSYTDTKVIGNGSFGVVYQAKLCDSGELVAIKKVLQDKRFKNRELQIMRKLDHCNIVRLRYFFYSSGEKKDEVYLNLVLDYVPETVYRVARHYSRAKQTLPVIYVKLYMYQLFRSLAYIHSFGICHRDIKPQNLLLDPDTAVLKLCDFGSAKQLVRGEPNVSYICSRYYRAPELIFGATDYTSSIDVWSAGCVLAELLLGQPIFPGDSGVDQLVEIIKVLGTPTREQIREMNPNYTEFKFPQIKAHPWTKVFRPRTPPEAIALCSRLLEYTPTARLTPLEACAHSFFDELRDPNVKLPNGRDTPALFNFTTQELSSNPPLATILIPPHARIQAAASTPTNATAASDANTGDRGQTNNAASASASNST

SMILES | EC50 [µM]
CCCNc1nc(N)nc(-c2cc(Cl)ccc2OC)n1 [MLS000538216] | > 300
CCNc1nc(N)nc(-c2cc(Cl)ccc2OC)n1 [MLS000538218] | > 300
CSc1nsc(CC=Nc2ccc(Cl)cc2)c1C#N [MLS000539457] | > 300
CNc1nc(-c2ccccc2)nc(-c2ccccc2)c1C#N [MLS000539511] | > 300
COc1cc(C=NNC(=O)c2sc(N)c(C#N)c2C)ccc1O [MLS000540774] | 0.436
COc1ccc(C(=O)ON=C(C)c2cccs2)cc1 [MLS000544771] | 13.9
O=C(Nc1ccsc1C(=O)NC1CC1)c1ccccc1 [MLS000546913] | 9.98
O=C(CN(Cc1cccs1)C(=O)CCC(=O)Nc1nccs1)NCc1ccccc1 [MLS000551058] | > 300
Cc1c(O)c(CN2CCCCC2)cc2c1oc(=O)c1ccccc12 [MLS000551544] | > 300
Cc1ccc2c(c1)cc1c(O)nncn12 [MLS000551564] | > 300
CCN(CC)Cc1c(O)ccc2c(=O)c(-c3ccc4c(c3)OCCO4)coc12 [MLS000552107] | > 300
Cn1nnc2sc3c(c2c1=O)CCCC3 [MLS000557299] | 23.3
CN1CCc2c(sc3c2c(=O)n(-c2ccccc2)c2n[nH]c(=S)n32)C1 [MLS000558136] | 21.7
Oc1cc(SC(=Nc2ccccc2)Nc2ccccc2)c(O)n1-c1cccc2ccccc12 [MLS000558765] | > 300
COc1ccc(-c2nn(-c3ccccc3)cc2C=Nn2c(O)csc2=S)cc1 [MLS000558856] | > 300
CCOC(=O)c1ccc2c(c1)[n+](CC)c(/C=C/N(C)c1ccccc1)n2CC [MLS000561766] | > 300
COc1ccc(-c2c(C)oc3ccc(C)cc23)cc1 [MLS000562305] | > 300
COC(=O)C1=C(C)N(CCCC(=O)O)C(=O)NC1c1ccc([N+](=O)[O-])cc1 (stereo not given) [MLS000562939] | > 300
Cc1noc2c1C(c1ccc(N(C)C)cc1)C1C(=O)CC(C)(C)CC1=N2 (stereo not given) [MLS000565136] | > 300
Cc1ccc2c(c1)C1CN(C)CCC1N2C(=O)Nc1cccc(Cl)c1 (stereo not given) [MLS000565326] | > 300
Cc1cc(C(=O)OCCN2C(=O)c3ccccc3C2=O)c2ccccc2n1 [MLS000565821] | > 300
COc1ccc(CC(=O)OCC(=O)Nc2ccc(Cl)cn2)cc1 [MLS000566076] | 107
Cc1cc(NC(=O)CSc2nnc(C3CC3)n2Cc2ccccc2)no1 [MLS000566701] | > 300
COc1cccc(N(C(=O)C[S+]([O-])CC(=O)Nc2ccc(F)cc2)C(C(=O)NC2CCCCC2)c2cccs2)c1 (stereo not given) [MLS000566826] | > 300

SMILES | EC50 [µM]
COCCn1c(SCC(=O)Nc2ccc(S(=O)(=O)N(C)C)cc2)nc2ccccc21 [MLS000567111] | > 300
Cc1ccc(C2c3c(C)noc3N=C3CC(C)(C)CC(=O)C32)cc1 (stereo not given) [MLS000568466] | > 300
O=C(Cc1sc(N2CCCCC2)nc1O)Nc1cccc(C(F)(F)F)c1 [MLS000570409] | > 300
O=c1[nH]c(N=NCc2ccccc2)nc2ccccc12 [MLS000571403] | > 300
Cc1ccc2c(c1)=C(NN1C(=O)c3ccccc3C1=O)C(=O)N=2 [MLS000573597] | > 300
CCOc1ccc(N2C(=O)S/C(=C\c3cccn3C)C2=O)cc1 [MLS000580380] | > 300
CCOc1ccccc1NC(=O)N1CCC2(CC1)OCCO2 [MLS000581263] | > 300
CN(CCO)c1cc(N2CCC3(CC2)OCCO3)c2nonc2c1[N+](=O)[O-] [MLS000584853] | 68
NS(=O)(=O)c1ccc(CCNC(=O)CSc2nc3ccsc3c(=O)n2C2CC2)cc1 [MLS000586542] | > 300
COCCNc1nc(N)c([N+](=O)[O-])c(NCC2CCCO2)n1 (stereo not given) [MLS000588049] | 13
COc1ccc2oc3cc(C)[n+]([O-])c(-c4ccc(Cl)cc4)c3c2c1 [MLS000588178] | 12.7
COc1ccc2oc3cc(C)[n+]([O-])c(-c4ccc(Br)cc4)c3c2c1 [MLS000588179] | > 300
O=C1N=C(NCc2ccccc2)SC1=Cc1ccccc1 [MLS000589841] | > 300
Cc1ccc(S(=O)(=O)N2CCN(CC(=O)NN=Cc3ccco3)CC2)cc1 [MLS000590873] | > 300
Cc1[nH]n(-c2ccccc2)c(=O)c1/C=N/NC(=O)COc1ccccc1[N+](=O)[O-] [MLS000592191] | > 300
CS(=O)(=O)N1CCN(c2cccc(Cl)n2)CC1 [MLS000594331] | > 300
Fc1ccc(CSc2ccc3nnc(-c4cccnc4)n3n2)cc1 [MLS000624295] | > 300
CCOC(=O)c1nnn(-c2nonc2N)c1CSc1nnc(N)s1 [MLS000624994] | > 300
CC(C)(C)c1ccc(C=Nn2cnnc2)cc1 [MLS000660819] | > 300
Cc1ccc(-c2nn(-c3ccccc3)cc2CNCc2ccccc2)cc1 [MLS000672046] | > 300
O=C(Nc1ccncc1)c1ccccc1-c1ccccc1 [MLS000672259] | 14.5
CCn1nc(NC(=O)c2cccs2)c2cc3ccccc3nc21 [MLS000674383] | > 300
CCOC(=O)c1ccc(NC(=O)Nc2ccccn2)cc1 [MLS000679333] | > 300
COc1ccc(Cl)cc1-n1c(C)ccc1C [MLS000680869] | > 300

SMILES | EC50 [µM]
COc1ccc(Nc2nc3ccc(OC)cc3s2)cc1 [MLS000684722] | > 300
CCOC(=O)CNC(=O)CSc1ccc2nnc(-c3ccc(F)cc3)n2n1 [MLS000684782] | > 300
N#Cc1ccc(CSc2nnc(-c3ccncc3)o2)cc1 [MLS000687325] | 15.1
COc1ccc(CNC(=O)CN(Cc2cccs2)C(=O)CCC(=O)Nc2ccccn2)cc1 [MLS000687650] | 13.4
NC(=O)c1ccc(N2CCCCCC2)c([N+](=O)[O-])c1 [MLS000688695] | > 300
CC1(C)CC(=O)C(C2(O)C(=O)Nc3ccccc32)CO1 (stereo not given) [MLS000689086] | > 300
O=C(O)Cc1sc(N[N-][CH+]c2ccc(-c3ccc(Cl)c([N+](=O)[O-])c3)o2)nc1O [MLS000689975] | > 300
CCOC(=O)Cc1csc(NC(=O)CSc2nc(-c3ccccc3)c(C#N)c(=O)[nH]2)n1 [MLS000690700] | > 300
O=NCc1ccc(Oc2cccc(Cl)c2)c([N+](=O)[O-])c1 [MLS000694755] | 38.2
COc1cccc(CCNC(=O)c2ccc(C#N)cc2)c1 [MLS000696427] | > 300
CC(C)=CCc1cc([C@@H]2CC(=O)c3ccc(O)c(CC=C(C)C)c3O2)ccc1O [MLS000697605] | 58.4
CC(C)=CCc1c(O)cc2c(c1O)C(=O)CC(c1ccccc1)O2 (stereo not given) [MLS000697639] | > 300
COc1ccc(Cl)cc1-c1nc(N)nc(N(C)C)n1 [MLS000698391] | > 300
S=C1Nc2cc(Cl)ccc2Sc2ccccc21 [MLS000698392] | > 300
COc1ccc(Cl)cc1-c1nc(N)nc(NC2CCCCC2)n1 [MLS000698409] | > 300
COc1cc(-c2n[nH]c3c2C(c2ccco2)C(C#N)C(=N)O3)cc(OC)c1OC (stereo not given) [MLS000698887] | 8.59
O=C(C1CCCO1)N1N=C(c2ccc(Br)cc2)CC1c1ccco1 (stereo not given) [MLS000699386] | > 300
COc1cc([CH-]N=[O+]C)ccc1Oc1ccc([N+](=O)[O-])cc1[N+](=O)[O-] [MLS000699890] | > 300
CC(CC(=O)NCc1ccccc1)=NNC(=O)c1cnccn1 [MLS000701004] | > 300
Cc1ccc(NC(=O)CSCc2ccc(F)cc2)cc1 [MLS000701707] | > 300
O=C(CN1C(=O)CCC1=O)Nc1cccc2c1C(=O)NC2=O [MLS000703473] | 2.36
CCOc1ccccc1N1CCN(S(=O)(=O)c2cc(C)ccc2OC)CC1 [MLS000703554] | > 300
CCn1c(-c2nn(C)cc2Cl)n[nH]c1=S [MLS000703969] | > 300
N#Cc1c(-c2cccs2)nc(SCc2ccc(Cl)cc2)[nH]c1=O [MLS000705749] | > 300

SMILES | EC50 [µM]
O=C(Nc1cccc(NC(=O)c2ccc3c(c2)OCO3)c1)c1ccccc1 [MLS000706176] | > 300
CN(C)/C=C/C(=O)c1cnc(-c2cccc(Cl)c2)s1 [MLS000706958] | > 300
O=C(O)CCn1cc(C=C2C(=O)NC(=S)NC2=O)c(-c2ccccc2)n1 [MLS000707577] | > 300
O=C(Cc1ccccc1)Nc1ccc(N2CCOCC2)cc1 [MLS000707957] | > 300
O=C(NCCO)Nc1ccc2nsnc2c1 [MLS000708760] | > 300
Cn1ncc(Br)c1C(=O)Nc1cccc(C(F)(F)F)c1 [MLS000711234] | > 300
COc1cc(C=C2SC(Nc3ccc(O)cc3)=NC2=O)cc(OC)c1O [MLS000715043] | > 300
CCc1ccc(C2NC(=S)N=C3CC(C)(C)CC(=O)C32)cc1 (stereo not given) [MLS000720309] | > 300
O=[N+]([O-])c1ccccc1Oc1ccc(Cl)c2cccnc12 [MLS000721853] | > 300
COc1ccc(-c2nnc(NC(=O)C3=COCCO3)o2)cc1 [MLS000722006] | > 300
COc1cccc(C(=O)NCC(=O)NN=C(C)C=Cc2ccccc2)c1 [MLS000723417] | > 300
c1ccc(CSc2ccc3nnc(-c4cccnc4)n3n2)cc1 [MLS000724858] | > 300
COC(=O)c1nnn(-c2nonc2N)c1CSc1nnc(C)s1 [MLS000728193] | 45.7
CC(=O)N1CCC(=O)Nc2ccc([N+](=O)[O-])cc21 [MLS000728217] | > 300
CC(C(=O)Nc1cccnc1)n1cc([N+](=O)[O-])cn1 (stereo not given) [MLS000729046] | > 300
Cc1cc(CNC(=O)c2cc(COc3c(F)cccc3F)on2)nn1C [MLS000734261] | > 300
CCOc1cc(C2c3c(n[nH]c3C)N=C3CC(C)(C)CC(=O)C32)ccc1O (stereo not given) [MLS000736418] | 3.32
O=C1N=c2cc(Cl)ccc2=C1NNc1ccc(C(=O)O)cc1 [MLS000759696] | 19.1
Cc1cnc(NC(=O)c2sc(Nc3ccccc3)nc2N)o1 [MLS000762724] | 9.59
CCCc1cc(NCc2ccccn2)n2nc(C)c(-c3ccccc3)c2n1 [MLS000762884] | > 300
CC(N=O)c1ncc(C(F)(F)F)cc1Cl (stereo not given) [MLS000763457] | > 300
O=C(NNC(=O)C1CC1)c1cc2cc3ccccc3nc2s1 [MLS000763570] | > 300
Cc1ccc(OCCn2c(S)nc3c(N)ncnc32)cc1 [MLS000765129] | > 300
